According to PubChem BioAssay (NCI):
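Step 1: Grow cells in 96-well plates. Step 2: Expose to compound for 48 hours at 5 concentrations. Step 3: Interpolate endpoints linearly; if unreached, use highest concentration. TGI marks complete inhibition of growth.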

What was measured:
Experiment in all cases: NCI anticancer screen, dose series, 48 h
COLO 205 colon = tested on: COLO 205 colon
DU-145 prostate = tested on: DU-145 prostate
EKVX NSCLC = tested on: EKVX NSCLC
HCT-116 colon = tested on: HCT-116 colon
IGROV1 ovarian = tested on: IGROV1 ovarian
RPMI-8226 leukemia = tested on: RPMI-8226 leukemia
SF-295 CNS = tested on: SF-295 CNS
SK-OV-3 ovarian = tested on: SK-OV-3 ovarian
SNB-75 CNS = tested on: SNB-75 CNS
T-47D breast = tested on: T-47D breast
A498 renal = tested on: A498 renal

Row | SMILES | TGI (COLO 205 colon) [µM] | TGI (DU-145 prostate) [µM] | TGI (EKVX NSCLC) [µM] | TGI (HCT-116 colon) [µM] | TGI (IGROV1 ovarian) [µM] | TGI (RPMI-8226 leukemia) [µM] | TGI (SF-295 CNS) [µM] | TGI (SK-OV-3 ovarian) [µM] | TGI (SNB-75 CNS) [µM] | TGI (T-47D breast) [µM] | TGI (A498 renal) [µM]
1 | NC(CCP(=O)(O)CCC1C=CC=CC1)C(=O)O (stereo not given) | > 100 | > 100 | > 100 | > 100 | > 100 | > 100 | > 100 | > 100 | > 100 | > 100 | –
2 | CC(C)(C)[Si](C)(C)OCC1CCC(n2cnc3c(N)ncnc32)O1 (stereo not given) | > 100 | > 100 | – | > 100 | > 100 | > 100 | > 100 | > 100 | > 100 | > 100 | > 100
3 | COC(=O)c1ccc(N=NN(C)COc2ccc([N+](=O)[O-])cc2)cc1 | > 100 | – | > 100 | > 100 | > 100 | > 95.3 | > 100 | > 100 | > 100 | – | > 100
4 | O=[N+]([O-])c1ccc(Nc2nc3ccccc3s2)cc1 | – | > 100 | 40.4 | – | 21.2 | – | > 100 | – | – | 14 | 92
5 | COc1cc(C2=C(C#N)C(N)OC3=C2COc2ccccc23)cc(OC)c1OC (stereo not given) | > 100 | 25.8 | 43.7 | 43.5 | > 100 | > 100 | – | 39.3 | – | – | 56.3
6 | CC1=CC(=O)C(=O)C2=C1OC1(C2)C(C)CCC2C3(C)CCC(O)C(C)(C)C3CCC21C (stereo not given) | 32.6 | – | – | 30.2 | 34.2 | 88.3 | 35.3 | 73.8 | > 100 | – | –
7 | COC1CC(OC2CCC3(C)C(CCC45CCC(C6=CC(=O)OC6)C(C)(CCC43)C5=O)C2)OC(C)C1O (stereo not given) | > 100 | 29.3 | > 100 | > 100 | > 100 | – | > 100 | > 100 | > 100 | > 100 | > 100
